{"source": "patent US10829458B2", "about": "(Araxes Pharma LLC, priority 2015, dated 2020)", "data": [{"target": "T1, KRAS G12C 1-169, his-tagged protein, GDP-loaded (Homo sapiens, UniProt P01116, G12C)", "T1 construct": "KRAS G12C 1-169, his-tagged protein, GDP-loaded", "experiment": "Biochemical assay: covalent modification of KRAS G12C measured by mass spectrometry (RapidFire/TOF or Q-Exactive)", "details": "covalent binding to KRAS G12C; compounds of structure (I)", "method_in_brief": "(§1)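 Covalent adduct formation read by intact-mass spectrometry (TOF or Q Exactive Plus, charge envelopes deconvoluted into modified and unmodified species) after formic acid quench. Reactions contained 2 μM GDP-bound KRAS G12C 1-169 (his-tag) in Hepes/NaCl/MgCl2 buffer plus 10, 30 or 100 μM final compound, held 30 min, 2 h or 24 h at room temperature.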", "values": [{"compound": "C=CC(=O)N1CCN(c2nc(NC3CCCN(C4CC4)C3)nc3c(F)c(-c4c(O)cccc4F)c(Cl)cc23)CC1", "note": "(stereo not shown) [Example I-120, 1-(4-(6-chloro-2-(1-cyclopropyl-piperidin-3-ylamino)-8-fluoro-7-(2-fluoro-6-hydroxyphenyl)quinazolin-4-yl)piperazin-1-yl) prop-2-en-1-one]", "Binding %": "++ (++ indicates binding activity from 50 to 90%)"}, {"compound": "C=CC(=O)N1CCN(c2nc(NC3CN(C4CCOCC4)C3)nc3c(F)c(-c4c(O)cccc4F)c(Cl)cc23)CC1", "note": "[Example I-185, 1-(4-(6-chloro-8-fluoro-7-(2-fluoro-6-hydroxyphenyl)-2-((1-(tetrahydro-2H-pyran-4-yl)azetidin-3-yl)amino)quinazolin-4-yl)piperazin-1-yl) prop-2-en-1-one]", "Binding %": "+ (+ indicates binding activity up to 50%)"}, {"compound": "C=CC(=O)N1CCN(c2nc(OCCN3CCC(F)(F)CC3)nc3c(F)c(-c4c(O)cccc4F)c(Cl)cc23)CC1", "note": "[Example I-38, 1-(4-(6-chloro-2-(2-(4,4-difluoro-piperidin-1-yl)ethoxy)-8-fluoro-7-(2-fluoro-6-hydroxyphenyl)quinazolin-4-yl)piperazin-1-yl) prop-2-en-1-one]", "Binding %": "+++ (+++ indicates binding activity greater than 90%)"}, {"compound": "C=CC(=O)N1CCN(c2nc(OCCN3CCN(C4CC4)CC3)nc3c(F)c(-c4c(O)cccc4F)c(Cl)cc23)CC1", "note": "[Example I-168, 1-(4-(6-chloro-2-(2-(4-cyclopropyl-piperazin-1-yl)ethoxy)-8-fluoro-7-(2-fluoro-6-hydroxyphenyl)quinazolin-4-yl)piperazin-1-yl) prop-2-en-1-one]", "Binding %": "+++ (+++ indicates binding activity greater than 90%)"}, {"compound": "C=CC(=O)N1CCN(c2nc(NC3CCCN(CC4CC4)C3)nc3c(F)c(-c4c(O)cccc4F)c(Cl)cc23)CC1", "note": "(stereo not shown) [Example I-134, 1-(4-(6-chloro-2-(1-(cyclopropyl-methyl)piperidin-3-ylamino)-8-fluoro-7-(2-fluoro-6-hydroxyphenyl)quinazolin-4-yl)piperazin-1-yl) prop-2-en-1-one]", "Binding %": "+++ (+++ indicates binding activity greater than 90%)"}, {"compound": "C=CC(=O)N1CCN(c2nc(OCc3cnc(C)nc3)nc3c(F)c(-c4c(O)cccc4F)c(Cl)cc23)CC1", "note": "[Example I-101, 1-(4-(6-chloro-8-fluoro-7-(2-fluoro-6-hydroxyphenyl)-2-((2-methyl-pyrimidin-5-yl)methoxy)quinazolin-4-yl)piperazin-1-yl) prop-2-en-1-one]", "Binding %": "+++ (+++ indicates binding activity greater than 90%)"}, {"compound": "C=CC(=O)N1CCN(c2nc(N3CC(N(C)C)C3)nc3c(F)c(-c4c(O)cccc4F)c(Cl)cc23)CC1", "note": "[Example I-55, 1-(4-(6-chloro-2-(3-(dimethyl-amino)azetidin-1-yl)-8-fluoro-7-(2-fluoro-6-hydroxyphenyl)quinazolin-4-yl)piperazin-1-yl) prop-2-en-1-one]", "Binding %": "+++ (+++ indicates binding activity greater than 90%)"}, {"compound": "C=CC(=O)N1CCN(c2nc(OCCc3ccccn3)nc3c(F)c(-c4cc(OC)cc5ccccc45)c(Cl)cc23)CC1", "note": "[Example I-54, 1-(4-(6-chloro-8-fluoro-7-(3-methoxy-naphthalen-1-yl)-2-(2-(pyridin-2-yl)ethoxy)quinazolin-4-yl)piperazin-1-yl)prop-2-en-1-one]", "Binding %": "+ (+ indicates binding activity up to 50%)"}, {"compound": "C=CC(=O)N1CCN(c2nc(NC3CCN(C(C)C)CC3)nc3c(F)c(-c4c(O)cccc4F)c(Cl)cc23)CC1", "note": "[Example I-84, 1-(4-(6-chloro-8-fluoro-7-(2-fluoro-6-hydroxyphenyl)-2-(1-isopropyl-piperidin-4-ylamino)quinazolin-4-yl)piperazin-1-yl)prop-2-en-1-one]", "Binding %": "+++ (+++ indicates binding activity greater than 90%)"}]}, {"target": "T1, KRAS G12C 1-169, his-tagged protein, GDP-loaded", "experiment": "Biochemical assay: covalent modification of KRAS G12C measured by mass spectrometry (RapidFire/TOF or Q-Exactive)", "details": "covalent binding to KRAS G12C; compounds of structure (II)", "method_in_brief": "as §1", "values": [{"compound": "C=CC(=O)N1CCC2(C1)CN(c1ncnc3c(F)c(-c4c(O)cccc4F)c(Cl)cc13)C2", "note": "[II-8, 1-(2-(6-chloro-8-fluoro-7-(2-fluoro-6-hydroxyphenyl)quinazolin-4-yl)-2,6-diazaspiro[3.4]octan-6-yl)prop-2-en-1-one]", "Binding %": "+ (+ indicates binding activity up to 50%)"}]}]}
